Patent US7268146B2, “Ring fused pyrazole derivatives as CRF antagonists” (Palo Alto LLC, priority 2001, dated 2007)
Structures can show the parent of a compound that is named as a salt.

Assays:
[1] = target: T1, hCRF1 (Homo sapiens, UniProt P34998); experiment: CRF Receptor Binding Assay; conditions: CRF1 receptor binding affinity (table title); read-out: hCRF1 (pIC50) (converted)
T1 construct: Celll membranes are prepared according the method of Dieterich and DeSouza (1996); endogenous in cells; host or cells: human IMR-32 neuroblastoma cells (membrane preparation)
T1 sequence (P34998 24-415): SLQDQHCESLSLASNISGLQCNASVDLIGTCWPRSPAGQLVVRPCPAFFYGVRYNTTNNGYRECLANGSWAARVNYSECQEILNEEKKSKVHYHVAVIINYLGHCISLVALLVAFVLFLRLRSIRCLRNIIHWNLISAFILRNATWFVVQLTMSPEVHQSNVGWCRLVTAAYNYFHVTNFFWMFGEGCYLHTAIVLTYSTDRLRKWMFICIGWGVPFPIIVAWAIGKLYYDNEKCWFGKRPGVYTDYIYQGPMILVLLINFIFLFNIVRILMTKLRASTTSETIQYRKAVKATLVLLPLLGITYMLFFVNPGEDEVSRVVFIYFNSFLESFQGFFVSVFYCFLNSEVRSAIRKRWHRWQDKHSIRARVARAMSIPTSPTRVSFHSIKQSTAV
Protocol: Human IMR-32 neuroblastoma cells are grown to 80% confluence in MEM medium containing 10% heat-inactivated FBS, 1 mM Sodium Pyruvate, and 0.1 mM nonessential amino acids. Celll membranes are prepared according the method of Dieterich and DeSouza (1996). The cells (˜5E+9) are resuspended in 10 volumes of wash buffer (5 mM Tris HCl, 10 mM MgCl2, 2 mM EGTA, pH 7.4 at RT), homogenized with a Polytron, and then centrifuged at 45,000 G for 20 min at 4° C. The membrane pellets are washed twice with wash buffer (45,000 G for 20 min at 4° C.) and then resuspended (50 mM Tris HCl, 10 mM MgCl2, 2 mM EGTA, pH 7.4 at RT). Protein concentration is determined using Pierce reagents and BSA as standard. Aliquots of 1-1.5 ml are stored at −80° C. until binding assay.
The competition binding assay is performed in a final volume of 250 μl, which contains assay buffer (50 mM Tris-HCl, 10 mM MgCl2, 2 mM EGTA, 0.2% BSA, 0.1 mM bacitracin and 100 kIU/ml aprotinin pH 7.2 at R.T.), 0.05 nM [^125I]Tyr^0-ovine CRF (Du Pont New England Nuclear), 50 μg of membrane protein, and test compound at various concentrations. Non-specific binding is determined with 1 uM hCRF. Binding reactions are terminated after 2 hr incubation at 25° C. by filtering through 96-w GF/C filter plate using a Packard Harvester (Filtermate 196). The 96-w filter plate is pre-treated with 0.3% polyethyleneimine and pre-washed with washing buffer (50 mM Tris-HCl, 10 mM MgCl2, 2 mM EGTA, 0.2% BSA, pH 7.2 at 4° C.). Unbound radioactivity is removed by four rapid washes (0.8 ml/well) with wash buffer. The radioactivity is quantified using a Packard TopCount. Data are analyzed using non-linear iterative curve fitting to obtain IC50 and Hill slope values. PKi values are derived from pIC50 values (−log of IC50).

Compound	IC50 [1] [nM]	melting point [°C]
Cc1cc(C)c(N2CCCc3c2nn(C)c3CN2CCc3ccccc3C2)c(C)c1 [Example 11, 2-[2-Methyl-7-(2,4,6-trimethyl-phenyl)-4,5,6,7-tetrahydro-2H-pyrazolo[3,4-b]pyridin-3-ylmethyl]-1,2,3,4-tetrahydroisoquinolinedihydrochloride]	12000	–
CCCC(CCC)c1c2c(nn1C)N(c1c(C)cc(C)cc1C)CCC2 [Example 7b, 2-Methyl-3-(1-propylbutyl)-7-(2,4,6-trimethylphenyl)-4,5,6,7-tetrahydro-2H-pyrazolo[3,4-b]pyridine]	87.1	91.5 to 92
CCCC(CCC)Oc1c2c(nn1C)N(c1ccc(Cl)cc1Cl)CCC2 [Example 12b, 7-(2,4-Dichlorophenyl)-2-methyl-3-(1-propylbutoxy)-4,5,6,7-tetrahydro-2H-pyrazolo[3,4-b]pyridinehydrochloride]	27.5	–
Cc1cc(C)c(N2CCCc3c2nn(C)c3Br)c(Cl)c1 [Example 1, 3-Bromo-7-(2-chloro-4,6-dimethylphenyl)-2-methyl-4,5,6,7-tetrahydro-2H-pyrazolo[3,4-b]pyridine]	1070	106 to 107
CCCC(O)(c1cccs1)c1c2c(nn1C)N(c1c(C)cc(C)cc1C)CCC2 (centres unmarked) [Example 5c, 1-[2-Methyl-7-(2,4,6-trimethylphenyl)-4,5,6,7-tetrahydro-2H-pyrazolo[3,4-b]pyridin-3-yl]-1-thiophen-2-ylbutan-1-ol]	11200	175.9 to 178.4
Cc1cc(C)c(N2CCCc3c2nn(C)c3Br)c(C)c1 [Example 3, 3-Bromo-2-methyl-7-(2,4,6-trimethyl-phenyl)-4,5,6,7-tetrahydro-2H-pyrazolo[3,4-b]pyridine]	–	94.6 to 97.9
Cc1cc(C)c(N2CCCc3c2nn(C)c3C(O)c2ccco2)c(C)c1 (centres unmarked) [Example 5i, Furan-2-yl[2-methyl-7-(2,4,6-trimethyl-phenyl)-4,5,6,7-tetrahydro-2H-pyrazolo[3,4-b]pyridin-3-yl]methanol]	–	163.1 to 174.4
CC/C=C(\CCC)c1c2c(nn1C)N(c1c(C)cc(C)cc1C)CCCC2 [Example 6d, 2-Methyl-3-(1-propylbut-1-enyl)-8-(2,4,6-trimethylphenyl)-2,4,5,6,7,8-hexahydro-1,2,8-triazaazulene]	–	101.9 to 103.9
CCCN(CCC)c1c2c(nn1C)N(c1c(C)cc(C)cc1C)CCC2 [Example 9ae, [2-Methyl-7-(2,4,6-trimethylphenyl)-4,5,6,7-tetrahydro-2H-pyrazoio[3,4-b]pyridin-3-yl]-dipropylamine]	–	88.9 to 91.5
Cc1cc(C)c(N2CCCc3c2nn(C)c3C2(O)CCOCC2)c(C)c1 [Example 5l, 4-[2-Methyl-7-(2,4,6-trimethylphenyl)-4,5,6,7-tetrahydro-2H-pyrazolo[3,4-b]pyridin-3-yl]tetrahydropyran-4-ol]	–	193 to 195.1
Cc1cc(C)c(N2CCCc3c2nn(C)c3C(=O)N2CCc3ccccc3C2)c(C)c1 [Example 10b, (3,4-Dihydro-1H-isoquinolin-2-yl)-[2-methyl-7-(2,4,6-trimethyl-phenyl)-4,5,6,7-tetrahydro-2H-pyrazolo[3,4-b]pyridin-3-yl]-methanone]	–	80.3 to 87.7
CC/C=C(\CCC)c1c2c(nn1C)N(c1ccc(Cl)cc1Cl)CCC2 [Example 6e, 7-(2,4-Dichlorophenyl)-2-methyl-3-(1-propylbut-1-enyl)-4,5,6,7-tetrahydro-2H-pyrazolo[3,4-b]pyridine]	234	–
Cc1cc(C)c(N2CCCc3c2nn(C)c3-c2ccccc2C(F)(F)F)c(C)c1 [Example 13a, 2-Methyl-3-(2-trifluoromethylphenyl)-7-(2,4,6-trimethylphenyl)-4,5,6,7-tetrahydro-2H-pyrazolo[3,4-b]pyridine]	776	59 to 63
CCC(CC)Nc1c2c(nn1C)N(c1c(C)cc(C)cc1C)CCC2 [Example 9af, (1-Ethylpropyl)-[2-methyl-7-(2,4,6-trimethyl-phenyl)-4,5,6,7-tetrahydro-2H-pyrazolo[3,4-b]pyridin-3-yl]-amine]	–	99.3 to 104.9
COCCC(O)(COC)c1c2c(nn1C)N(c1c(C)cc(C)cc1C)CCC2 (centres unmarked) [Example 5g, 1,4-Dimethoxy-2-[2-methyl-7-(2,4,6-trimethylphenyl)-4,5,6,7-tetrahydro-2H-pyrazolo[3,4-b]pyridin-3-yl]butan-2-ol]	–	107.9 to 110.9
CCCN(Cc1ccco1)c1c2c(nn1C)N(c1c(C)cc(C)cc1Cl)CCC2 [Example 9c, [7-(2-Chloro-4,6-dimethyl-phenyl)-2-methyl-4,5,6,7-tetrahydro-2H-pyrazolo[3,4-b]pyridin-3-yl]-furan-2-ylmethyl-propyl-aminetrifluoroacetic acid salt]	832	–
